Here are results for 2 compounds from US20200200735A9, “SYSTEM AND METHOD FOR DETECTING THERAPEUTIC AGENTS TO MONITOR ADHERENCE TO A TREATMENT REGIMEN” (UrSure, Inc., priority 2016, published 2020).

The subject of data set [1] is HIV. The note with it: Anderson 2012; cited from earlier work.
Data set [2] is described as follows: Cohort 2: single dose of Truvada in healthy subjects, TFV clearance in plasma and urine over 7 days (LC-MS/MS). It is filed as in vivo, human. As to the method: (§1) 3 cohort studies were conducted to assess a system for detection of the active metabolite tenofovir (TFV) of the prodrug nucleotide reverse transcriptase inhibitor (NRTI) tenofovir disoproxil fumarate (TDF). Cohort 1: a cross sectional study of 10 HIV positive subjects with undetectable HIV viral loads on a TDF-based regimen; Cohort 2: a single dose study of Truvada in 10 healthy subjects to evaluate TFV clearance in plasma and urine over 7 days; Cohort 3: a 16 week study of 10 HIV negative subjects receiving daily PrEP to evaluate concordance between plasma and urine over time.
A semi-quantitative liquid chromatography-tandem mass spectrometry (LC-MS/MS) urine assay was developed for detection of TFV with high sensitivity/specificity. […] To evaluate the qualitative relationship of urine TFV levels to plasma levels, the levels of TFV in the urine and plasma from Cohort 1 was evaluated. […] In addition, the TFV concentration was 3-4 logs higher in urine than plasma (FIG. 2). In cohort 2, TFV was detected for >7 days in urine and 2-4 days in plasma after a single dose of Truvada™ (FIG. 3). […] The urine assay was 2 logs more sensitive than serum over 7 days (FIG. 3).
A semi-quantitative liquid chromatography-tandem mass spectrometry (LC-MS/MS) urine assay with high sensitivity and specificity for TFV allowed us to determine TFV concentrations in log categories between <[…] to >10,000 ng/mL. Following protein precipitation (0.1 mL human plasma or urine or diluted urine sample) using 100% acetonitrile with 0.1% formic acid, containing deuterated internal standard (2H6-tenofovir, 50 ng/mL), the analytes were separated using gradient mobile phase on a reverse phase C18 column and analyzed by MS/MS (AB Sciex API4000). The multiple reaction monitoring of m/z 288.3 to 176.3 for tenofovir and m/z 294.3 to 182.2 for 2H6-tenofovir was used for analysis. […] Flow rate was 0.7 ml/min and total chromatographic run-time was 3.0 minutes/sample.
Standards (10, 100, 1000 and 10,000 ng/mL in human plasma), blanks (double blank and internal standard blank) and unknown plasma and urine samples were thawed to room temperature. One hundred μL of all standards and blanks were put into appropriate wells on a 96 well plate. Diluted unknown urine samples (95 μL blank plasma +5 μL of unknown urine samples, 20-fold dilution) or undiluted plasma samples were mixed with 400 μL of IS solution in a 96 well plate. The plate was vortexed for 30 seconds at high speed and centrifuged for 30 minutes at 4000 rpm. Supernatant was transferred to a fresh 96 well plate and a 10 μL aliquot was injected for LC-MS/MS analysis from autosampler. […] When the concentration of TFV in urine samples exceeded 1,000 ng/mL, samples were diluted 50-fold with blank urine and reanalyzed.

For data set [3] the following is noted: in vivo; cited from earlier work.
In data set [4] the test system is HIV-1. The note with it: cited from earlier work.
Data set [5] is described as follows: Cohort 3: 16 week study of HIV negative subjects on daily PrEP, TFV in plasma and urine (LC-MS/MS). As to conditions: Cohort 3, daily PrEP. The class given is in vivo, human. How it is done: as §1
(§2) A semi-quantitative liquid chromatography-tandem mass spectrometry (LC-MS/MS) urine assay was developed for detection of TFV with high sensitivity/specificity. […] To evaluate the qualitative relationship of urine TFV levels to plasma levels, the levels of TFV in the urine and plasma from Cohort 1 was evaluated. […] In addition, the TFV concentration was 3-4 logs higher in urine than plasma (FIG. 2). In cohort 2, TFV was detected for >7 days in urine and 2-4 days in plasma after a single dose of Truvada™ (FIG. 3). […]
(§3) A semi-quantitative liquid chromatography-tandem mass spectrometry (LC-MS/MS) urine assay with high sensitivity and specificity for TFV allowed us to determine TFV concentrations in log categories between <10 ng/L to >10,000 ng/mL. […]

For data set [6] the following is noted: in vivo; cited from earlier work. The source holds these as a separate data set.
For data set [7] the following is noted: human, in vivo. As to the method:
as §1, §2, §3

Like-named read-outs stand apart in the source and are kept apart here.

On to `CC(Cn1cnc2c(N)ncnc21)OCP(=O)(O)OP(=O)(O)OP(=O)(O)O` (stereo in doubt) [tenofovir-diphosphate], for which, in data set [1], the “intracellular concentration associated with a 90% reduction in HIV acquisition relative to the placebo arm” value is listed as 16 fmol per million peripheral blood mononuclear cells (PBMCs).

As for `C[C@H](Cn1cnc2c(N)ncnc21)OCP(=O)(O)O` [TFV, Tenofovir], in data set [2] (after a single dose of Truvada), the “time TFV detected in plasma” value lay within 2 to 4 days and the “time TFV detected in urine” value was above 7 days. Also, the “urine TFV clearance pattern” value in data set [2] (after a single dose of Truvada, over 7 days) is reported as “cleared in a log-linear fashion”. In addition, the “window of medication usage reflected by TFV detection in urine” value in data set [2] (after oral TDF/FTC ingestion, preliminary data) was “one to at least seven days”. Moreover, in data set [3], the intracellular half-life is 150 h and the plasma half-life was 17 h. For the same compound, the “HIV-1 risk reduction corresponding to intracellular tenofovir concentration” value (shortened to “HIV-1 risk reduction corresponding”) in data set [4] (2 doses per week) is 76%. The “HIV-1 risk reduction corresponding” value in data set [4] (4 doses per week) is given as 96%. For the same compound, the “HIV-1 risk reduction corresponding” value in data set [4] (7 doses per week) is 99%. In data set [5], the “plasma samples with TFV detected” value is listed as 74% and the “urine samples with TFV detected” value came out at 93%. The “window of exposure reflected by single plasma concentrations” value in data set [6] was 2 to 3 days. The “TFV concentration higher in urine than plasma” value in data set [7] is 3-4 logs.
